Laboratory results reported in patent US10035799B2, “COMT inhibiting methods and compositions” (Lieber Institute for Brain Development, priority 2015, dated 2018).

Each compound was assayed against T1, catechol-O-methyltransferase (COMT) (Homo sapiens, UniProt P21964) (assay: COMT inhibition assay (HTRF, production of S-adenosyl homocysteine)). Details: recombinant human COMT, HTRF SAH production; MB-COMT or S-COMT not stated for Table 1.
T1 construct: M51A variant) was expressed in HEK 293F cells
T1 sequence (P21964 52-271 limits assumed): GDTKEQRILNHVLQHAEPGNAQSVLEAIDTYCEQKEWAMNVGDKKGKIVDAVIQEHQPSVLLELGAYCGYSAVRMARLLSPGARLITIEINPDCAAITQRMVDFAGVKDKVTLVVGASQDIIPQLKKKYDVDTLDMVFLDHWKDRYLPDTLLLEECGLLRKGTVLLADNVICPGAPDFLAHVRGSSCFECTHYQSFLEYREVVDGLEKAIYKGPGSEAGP
Assay type: biochemical
Protocol: The ability of compounds to inhibit the activity of catechol-O-methyltransferase (COMT) was determined by a homogenous time-resolved fluorescent (HTRF) assay (Lina et al, 2012; kit from CisBio, Codolet, France). This assay measures the production of S-adenosyl homocysteine (SAH) from the methyl donor S-adenosyl methionine. Recombinant human membrane bound COMT (MB-COMT; M51A variant) was expressed in HEK 293F cells using 293Fectin (Life Technologies, Gent, Belgium) and membranes prepared. The membranes were re-suspended in buffer (20 mM Tris/HCl pH 7; 10 mM glycerol; 2 mM MgCl2; 10 mM NaCl), aliquoted and stored at −80° C. Recombinant human soluble COMT(S-COMT), Va1158 variant and a hexa-His tag on the N-terminus, was purified using Ni-NTA chromatography, the His tag removed and stored in buffer as above.
For the human MB-COMT assay, membranes (62 ng/well) were incubated with SAM (20 μM final, CisBio) and dopamine (1.5 μM final; Sigma H8502, Diegem, Belgium) in the presence or absence of varying concentrations (typically 10 concentrations ranging from 10 μM to 0.1 nM) of compound for 40 min at 37° C. in 384-well microtitre plates (10 μl per well final volume). The reaction was terminated by the addition of acylation buffer and the amount of SAH produced determined according to manufacturer's instructions. Specific inhibition as that inhibited by a high concentration of tolcapone (10 μM; synthesised at UCB) and all experiments were validated using a control curve to tolcapone.
The human S-COMT assay was performed as above except that 0.15 ng enzyme/well was incubated with SAM (20 μM final) and dopamine (100 μM final) for 15 min at 37° C. and SAH production determined.
HTRF readings were performed using a Perkin Elmer Envision and results expressed as concentration of SAH produced using a standard curve. Results were analysed using non-linear regression to the 4-parameter logistic equation and pIC50 (−log 10 concentration of drug which inhibits enzyme activity/SAH production by 50%) determined.
With `O=S(=O)(c1ccc(O)c2ncccc12)N1CCNCC1` [Example 104, 5-piperazin-1-ylsulfonylquinolin-8-ol] the “Activity range (pIC50, COMT inhibition)” value was “+ (a pIC50 of from about 4.5 to 6)”. For `O=S(=O)(c1ccccc1)c1ccc(O)c2ncccc12` [Example 22, 5-(benzenesulfonyl)quinolin-8-ol], the “Activity range (pIC50, COMT inhibition)” value was “+++ (a pIC50 of above about 7)”. With `Cc1cccc(S(=O)(=O)c2ccc(O)c3ncccc23)c1` [Example 7, 5-(m-tolylsulfonyl)quinolin-8-ol] the “Activity range (pIC50, COMT inhibition)” value was “+++ (a pIC50 of above about 7)”. With `O=S(=O)(c1ccc(O)c2ncccc12)N1CCCC(c2ccccc2)C1` (stereo not drawn) [Example 102, 5-[(3-phenyl-1-piperidyl)sulfonyl]quinolin-8-ol] the “Activity range (pIC50, COMT inhibition)” value was “+++ (a pIC50 of above about 7)”. With `O=S(=O)(c1ccc(O)c2ncccc12)N1CCc2ccccc2C1` [Example 40, 5-(3,4-dihydro-1H-isoquinolin-2-ylsulfonyl)quinolin-8-ol] the “Activity range (pIC50, COMT inhibition)” value was “+++ (a pIC50 of above about 7)”. For `O=S(=O)(c1cccc(-c2cccc3[nH]ncc23)c1)c1ccc(O)c2ncccc12` [Example 26, 5-[3-(1H-indazol-4-yl)phenyl]sulfonylquinolin-8-ol], the “Activity range (pIC50, COMT inhibition)” value was “+++ (a pIC50 of above about 7)”. `O=S(=O)(c1ccc(O)c2ncccc12)N1CCN(c2ccccc2-c2ccccc2)CC1` [Example 92, 5-[4-(2-phenylphenyl)piperazin-1-yl]sulfonylquinolin-8-ol] was tested, and the “Activity range (pIC50, COMT inhibition)” value was “++ (a pIC50 of from about great than 6 to 7)”. For `Cc1ccc(S(=O)(=O)c2ccc(O)c3ncccc23)c(C)c1` [Example 10, 5-(2,4-dimethylphenyl)sulfonylquinolin-8-ol], the “Activity range (pIC50, COMT inhibition)” value was “+++ (a pIC50 of above about 7)”. With `CCN(Cc1ccccc1)S(=O)(=O)c1ccc(O)c2ncccc12` [Example 56, N-benzyl-N-ethyl-8-hydroxy-quinoline-5-sulfonamide] the “Activity range (pIC50, COMT inhibition)” value was “+++ (a pIC50 of above about 7)”. `O=S(=O)(c1ccc(O)c2ncccc12)N1CCN(c2cccc(Cl)c2Cl)CC1` [Example 97, 5-[4-(2,3-dichlorophenyl)piperazin-1-yl]sulfonylquinolin-8-ol] was tested, and the “Activity range (pIC50, COMT inhibition)” value was “++ (a pIC50 of from about great than 6 to 7)”. In the case of `O=S(=O)(c1cccc(Cl)c1)c1ccc(O)c2ncccc12` [Example 14, 5-(3-chlorophenyl)sulfonylquinolin-8-ol], the “Activity range (pIC50, COMT inhibition)” value is reported as “+++ (a pIC50 of above about 7)”. In the case of `Cc1cccc(N2CCN(S(=O)(=O)c3ccc(O)c4ncccc34)CC2)c1C` [Example 100, 5-[4-(2,3-dimethylphenyl)piperazin-1-yl]sulfonylquinolin-8-ol], the “Activity range (pIC50, COMT inhibition)” value is reported as “++ (a pIC50 of from about great than 6 to 7)”. For `Cc1cc(S(=O)(=O)N(C)[C@H](C)c2ccccc2)c2cccnc2c1O` [Example 115, 8-hydroxy-N,7-dimethyl-N-[(1R)-1-phenylethyl]quinoline-5-sulfonamide], the “Activity range (pIC50, COMT inhibition)” value was “++ (a pIC50 of from about great than 6 to 7)”. `O=C1NCN(c2ccccc2)C12CCN(S(=O)(=O)c1ccc(O)c3ncccc13)CC2` [Example 87, 8-[(8-hydroxy-5-quinolyl)sulfonyl]-1-phenyl-1,3,8-triazaspiro[4.5]decan-4-one] was tested, and the “Activity range (pIC50, COMT inhibition)” value was “+++ (a pIC50 of above about 7)”. `CCN(Cc1ccncc1)S(=O)(=O)c1ccc(O)c2ncccc12` [Example 66, N-ethyl-8-hydroxy-N-(4-pyridylmethyl)quinoline-5-sulfonamide] was tested, and the “Activity range (pIC50, COMT inhibition)” value was “++ (a pIC50 of from about great than 6 to 7)”. `O=S(=O)(c1ccc(O)c2ncccc12)C1CCCC1` [Example 31, 5-cyclopentylsulfonylquinolin-8-ol] was tested, and the “Activity range (pIC50, COMT inhibition)” value was “+++ (a pIC50 of above about 7)”. `Cc1ccc(S(=O)(=O)c2ccc(O)c3ncccc23)cc1C` [Example 3, 5-(3,4-dimethylphenyl)sulfonylquinolin-8-ol] was tested, and the “Activity range (pIC50, COMT inhibition)” value was “+++ (a pIC50 of above about 7)”. With `O=S(=O)(c1ccc(O)c2ncccc12)N1CCCCC1` [Example 63, 5-(piperidin-1-yl)sulfonylquinolin-8-ol] the “Activity range (pIC50, COMT inhibition)” value was “+++ (a pIC50 of above about 7)”. In the case of `COc1ccc(S(=O)(=O)c2ccc(O)c3ncccc23)cc1` [Example 18, 5-(4-methoxyphenyl)sulfonylquinolin-8-ol], the “Activity range (pIC50, COMT inhibition)” value is reported as “+++ (a pIC50 of above about 7)”. With `Cc1cnccc1S(=O)(=O)c1ccc(O)c2ncccc12` [Example 27, 5-[(3-methyl-4-pyridyl)sulfonyl]quinolin-8-ol] the “Activity range (pIC50, COMT inhibition)” value was “+++ (a pIC50 of above about 7)”. For `O=S(=O)(c1ccc(O)c2ncccc12)N1CCC(c2ccccc2)CC1` [Example 73, 5-[(4-phenyl-1-piperidyl)sulfonyl]quinolin-8-ol], the “Activity range (pIC50, COMT inhibition)” value was “+++ (a pIC50 of above about 7)”. For `CC(C)(C)c1ccc(S(=O)(=O)c2ccc(O)c3ncccc23)cc1` [Example 5, 5-(4-tert-butylphenyl)sulfonylquinolin-8-ol], the “Activity range (pIC50, COMT inhibition)” value was “+++ (a pIC50 of above about 7)”. With `CN1CCN(S(=O)(=O)c2ccc(O)c3ncccc23)CC1` [Example 60, 5-(4-methylpiperazin-1-yl)sulfonylquinolin-8-ol] the “Activity range (pIC50, COMT inhibition)” value was “++ (a pIC50 of from about great than 6 to 7)”. In the case of `O=S(=O)(c1ccc2ccccc2c1)c1ccc(O)c2ncccc12` [Example 12, 5-(2-naphthylsulfonyl)quinolin-8-ol], the “Activity range (pIC50, COMT inhibition)” value is reported as “+++ (a pIC50 of above about 7)”. With `O=S(=O)(c1ccc(O)c2ncccc12)c1cccc2c1ncn2Cc1ccccc1Cl` [Example 28, 5-[1-[(2-chlorophenyl)methyl]benzimidazol-4-yl]sulfonylquinolin-8-ol] the “Activity range (pIC50, COMT inhibition)” value was “+++ (a pIC50 of above about 7)”. `O=S(=O)(c1ccc(O)c2ncccc12)C1CCN(Cc2cccc(Cl)c2Cl)CC1` [Example 38, 5-[[1-[(2,3-dichlorophenyl)methyl]-4-piperidyl]sulfonyl]quinolin-8-ol] was tested, and the “Activity range (pIC50, COMT inhibition)” value was “++ (a pIC50 of from about great than 6 to 7)”. In the case of `CC(=O)C1(c2ccccc2)CCN(S(=O)(=O)c2ccc(O)c3ncccc23)CC1` [Example 86, 1-[1-[(8-hydroxy-5-quinolyl)sulfonyl]-4-phenyl-4-piperidyl]ethanone], the “Activity range (pIC50, COMT inhibition)” value is reported as “+++ (a pIC50 of above about 7)”. `Cc1ccc(N(C)S(=O)(=O)c2ccc(O)c3ncccc23)cc1` [Example 46, 8-hydroxy-N-(4-methylphenyl)-N-methylquinoline-5-sulfonamide] was tested, and the “Activity range (pIC50, COMT inhibition)” value was “++ (a pIC50 of from about great than 6 to 7)”. For `Cc1ccc(S(=O)(=O)c2cc(I)c(O)c3ncccc23)cc1` [Example 107, 7-iodo-5-(p-tolylsulfonyl)quinolin-8-ol], the “Activity range (pIC50, COMT inhibition)” value was “++ (a pIC50 of from about great than 6 to 7)”. For `O=S(=O)(c1ccc(O)c2ncccc12)N1CCN(c2ccccc2)CC1` [Example 41, 5-(4-phenylpiperazin-1-yl)sulfonylquinolin-8-ol], the “Activity range (pIC50, COMT inhibition)” value was “++ (a pIC50 of from about great than 6 to 7)”. For `O=S(=O)(c1cccc(C(F)(F)F)c1)c1ccc(O)c2ncccc12` [Example 13, 5-[3-(trifluoromethyl)phenyl]sulfonylquinolin-8-ol], the “Activity range (pIC50, COMT inhibition)” value was “+++ (a pIC50 of above about 7)”. For `C[C@H](c1ccccc1)N(C)S(=O)(=O)c1cc(F)c(O)c2ncccc12` [Example 123, 7-fluoro-8-hydroxy-N-methyl-N-[(1R)-1-phenylethyl]quinoline-5-sulfonamide], the “Activity range (pIC50, COMT inhibition)” value was “+++ (a pIC50 of above about 7)”. For `Cc1ccc(CCS(=O)(=O)c2ccc(O)c3ncccc23)cc1` [Example 29, 5-[2-(p-tolyl)ethylsulfonyl]quinolin-8-ol], the “Activity range (pIC50, COMT inhibition)” value was “+++ (a pIC50 of above about 7)”. `Cc1ccc(CS(=O)(=O)c2ccc(O)c3ncccc23)cc1` [Example 32, 5-(p-tolylmethylsulfonyl)quinolin-8-ol] was tested, and the “Activity range (pIC50, COMT inhibition)” value was “++ (a pIC50 of from about great than 6 to 7)”. `COc1cccc(CN(C)S(=O)(=O)c2ccc(O)c3ncccc23)c1` [Example 42, 8-hydroxy-N-[(3-methoxyphenyl)methyl]-N-methyl-quinoline-5-sulfonamide] was tested, and the “Activity range (pIC50, COMT inhibition)” value was “+++ (a pIC50 of above about 7)”. In the case of `Cc1ccc(CNS(=O)(=O)c2ccc(O)c3ncccc23)cc1` [Example 44, 8-hydroxy-N-(4-methylbenzyl)quinoline-5-sulfonamide], the “Activity range (pIC50, COMT inhibition)” value is reported as “++ (a pIC50 of from about great than 6 to 7)”.
